Target: Isocitrate dehydrogenase [NADP] cytoplasmic (Homo sapiens, UniProt O75874, R132H)
Test: Inhibition of IDH1 R132H mutant (unknown origin) using alpha-ketoglutarate and NADPH incubated for 60 mins by fluorescence based assay

Isocitrate dehydrogenase [NADP] cytoplasmic, sequence (O75874 2-414 R132H limits assumed): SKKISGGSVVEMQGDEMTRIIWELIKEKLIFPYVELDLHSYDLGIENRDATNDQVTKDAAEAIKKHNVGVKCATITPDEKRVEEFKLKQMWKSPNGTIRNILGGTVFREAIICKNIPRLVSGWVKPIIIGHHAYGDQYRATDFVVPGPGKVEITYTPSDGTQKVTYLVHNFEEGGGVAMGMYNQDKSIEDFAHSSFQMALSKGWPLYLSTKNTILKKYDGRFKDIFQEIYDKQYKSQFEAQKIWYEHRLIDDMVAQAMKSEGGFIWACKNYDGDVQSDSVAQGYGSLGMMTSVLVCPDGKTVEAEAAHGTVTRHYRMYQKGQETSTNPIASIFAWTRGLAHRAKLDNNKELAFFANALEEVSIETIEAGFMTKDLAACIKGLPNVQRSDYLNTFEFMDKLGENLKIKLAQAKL

SMILES: O=C(O)C[C@@H]1CCCN(c2ccc(C(=O)NC3CCCCC3)c(SCc3ccccc3)n2)C1
- IC50: 39 µM

SMILES: O=C(O)C[C@@H]1CCCN(c2ccc(C(=O)NC3CCCCC3)c(OCc3ccc(Cl)cc3)n2)C1
- IC50: 7.7 µM

SMILES: CCC(C)Oc1nc(N2CCC[C@@H](CC(=O)O)C2)ccc1C(=O)NC1CCCCC1 (some centres undefined)
- IC50: > 50 µM

SMILES: CCC(C)COc1nc(N2CCC[C@@H](CC(=O)O)C2)ccc1C(=O)NC1CCCCC1 (some centres undefined)
- IC50: 16 µM

SMILES: COCCOc1nc(N2CCC[C@@H](CC(=O)O)C2)ccc1C(=O)NC1CCCCC1
- IC50: > 50 µM

SMILES: O=C(O)C[C@@H]1CCCN(c2ccc(C(=O)NC3CCCCC3)c(NCC3CCCCC3)n2)C1
- IC50: > 50 µM

SMILES: CC(C)CCOc1nc(N2C[C@@H]3[C@H](C2)[C@H]3C(=O)O)ccc1C(=O)N(C)C1CCCCC1
- IC50: 17 µM

SMILES: CC(C)(C)CCOc1nc(N2CCC[C@@H](CC(=O)O)C2)ccc1C(=O)NC1CCCCC1
- IC50: 7.6 µM

SMILES: O=C(O)C[C@@H]1CCCN(c2ccc(C(=O)NC3CCCCC3)c(OCC3CC3)n2)C1
- IC50: 30 µM

SMILES: Cc1ccccc1CNc1nc(N2CCC[C@@H](CC(=O)O)C2)ccc1C(=O)NC1CCCCC1
- IC50: > 50 µM

SMILES: CCC(C)(C)Oc1nc(N2CCC[C@@H](CC(=O)O)C2)ccc1C(=O)NC1CCCCC1
- IC50: 14 µM

SMILES: O=C(O)C[C@@H]1CCCN(c2ccc(C(=O)NC3CCCCC3)c(OCCc3ccccc3)n2)C1
- IC50: 43 µM

SMILES: CC(C)CCOc1nc(N2CCC[C@@H](CC(=O)O)C2)ccc1C(=O)NC1CCCCC1
- IC50: 6.4 µM

SMILES: Cc1cccc(COc2nc(N3CCC[C@@H](CC(=O)O)C3)ccc2C(=O)NC2CCCCC2)c1
- IC50: 4.6 µM

SMILES: CC(Oc1nc(N2CCC[C@@H](CC(=O)O)C2)ccc1C(=O)NC1CCCCC1)C1CC1 (some centres undefined)
- IC50: 20 µM

SMILES: COC12CC3CC(C1)C(NC(=O)c1ccc(N4C[C@@H]5[C@H](C4)[C@H]5C(=O)O)nc1OCCC(C)C)C(C3)C2 (some centres undefined)
- IC50: 0.27 µM

SMILES: COc1ccccc1COc1nc(N2CCC[C@@H](CC(=O)O)C2)ccc1C(=O)NC1CCCCC1
- IC50: 13 µM

SMILES: O=C(O)C[C@@H]1CCCN(c2ccc(C(=O)NC3CCCCC3)c(OCCCC(F)(F)F)n2)C1
- IC50: 15 µM

SMILES: Cc1ccccc1COc1nc(N2CCC[C@@H](CC(=O)O)C2)ccc1C(=O)NC1C2CC3CC1CC(O)(C3)C2 (some centres undefined)
- IC50: 0.69 µM

SMILES: CC(C)CCOc1nc(N2C[C@@H]3[C@H](C2)[C@H]3C(=O)O)ccc1C(=O)NCc1ccc(O)cc1
- IC50: 6.6 µM

SMILES: Cc1ccccc1[C@@H](C)Oc1nc(N2CCC[C@@H](CC(=O)O)C2)ccc1C(=O)NC1CCCCC1
- IC50: 5.8 µM

SMILES: CC(C)CCOc1nc(N2C[C@@H]3[C@H](C2)[C@H]3C(=O)O)ccc1NS(=O)(=O)C1CCCCC1
- IC50: 8.6 µM

SMILES: CC(C)CCOc1nc(N2C[C@@H]3[C@H](C2)[C@H]3C(=O)O)ccc1C(=O)NC(C)C1C2CC3CC1CC(O)(C3)C2 (some centres undefined)
- IC50: 0.23 µM

SMILES: CC(C)CCOc1nc(Nc2coc(C(=O)O)n2)ccc1C(=O)NC1C2CC3CC1CC(O)(C3)C2 (centres undefined)
- IC50: 21 µM

SMILES: CC(C)CCOc1nc(N2C[C@@H]3[C@H](C2)[C@H]3C(=O)O)ccc1C(=O)NC1CCCCC1
- IC50: 7.9 µM

SMILES: CC(C)CCOc1nc(N2C[C@@H]3[C@H](C2)[C@H]3C(=O)O)ccc1C(=O)NCc1cccc(Cl)c1
- IC50: 6.5 µM

SMILES: CC(C)CCOc1nc(N2C[C@@H]3[C@H](C2)[C@H]3C(=O)O)ccc1C(=O)NCc1ccc(Cl)cc1
- IC50: 17 µM

SMILES: O=C(O)C[C@@H]1CCCN(c2ccc(C(=O)NC3CCCCC3)c(OCCC3CC3)n2)C1
- IC50: 8 µM

SMILES: COc1cccc(COc2nc(N3CCC[C@@H](CC(=O)O)C3)ccc2C(=O)NC2CCCCC2)c1
- IC50: 12 µM

SMILES: CC(C)COc1nc(N2CCC[C@@H](CC(=O)O)C2)ccc1C(=O)NC1CCCCC1
- IC50: 26 µM

SMILES: CC(C)CCSc1nc(N2CCC[C@@H](CC(=O)O)C2)ccc1C(=O)NC1CCCCC1
- IC50: 10 µM

SMILES: CC(C)CCOc1nc(Nc2csc(C(=O)O)n2)ccc1C(=O)NC1C2CC3CC1CC(O)(C3)C2 (centres undefined)
- IC50: 0.81 µM

SMILES: CC(C)CCOc1nc(N2C[C@@H]3[C@H](C2)[C@H]3C(=O)O)ccc1C(=O)NCc1ccccc1
- IC50: 9.4 µM

SMILES: O=C(NC1C2CC3CC1CC(O)(C3)C2)c1ccc(N2C[C@@H]3[C@H](C2)[C@H]3C(=O)O)nc1OCc1ccccc1Cl (some centres undefined)
- IC50: 3.2 µM

SMILES: CC(C)CCOc1nc(-c2ccc(C(=O)O)cc2)ccc1C(=O)NC1C2CC3CC1CC(O)(C3)C2 (centres undefined)
- IC50: 3 µM

SMILES: O=C(O)C[C@@H]1CCCN(c2ccc(C(=O)NC3C4CC5CC3CC(O)(C5)C4)c(OCc3ccccc3)n2)C1 (some centres undefined)
- IC50: 2.3 µM

SMILES: CCOc1nc(N2CCC[C@@H](CC(=O)O)C2)ccc1C(=O)NC1CCCCC1
- IC50: > 50 µM

SMILES: O=C(O)C[C@@H]1CCCN(c2ccc(C(=O)NC3CCCCC3)c(OCc3cccc(Cl)c3)n2)C1
- IC50: 9.9 µM

SMILES: CC(C)CCOc1nc(N2C[C@@H]3[C@H](C2)[C@H]3C(=O)O)ccc1C(=O)N[C@@H](CO)c1ccccc1
- IC50: 5.6 µM

SMILES: CC(C)CCOc1nc(N2C[C@@H]3[C@H](C2)[C@H]3C(=O)O)ccc1C(=O)Nc1cccc(NS(C)(=O)=O)c1
- IC50: 5.4 µM

SMILES: CC(C)CCOc1nc(N2C[C@@H]3[C@H](C2)[C@H]3C(=O)O)ccc1C(=O)Nc1cccc(C(N)=O)c1
- IC50: 6 µM

SMILES: O=C(O)C[C@@H]1CCCN(c2ccc(C(=O)NC3CCCCC3)c(OC3CCCC3)n2)C1
- IC50: 12 µM

SMILES: CC(C)CCOc1nc(N2CC[C@H](CC(=O)O)C2)ccc1C(=O)NC1C2CC3CC1CC(O)(C3)C2 (some centres undefined)
- IC50: 1.2 µM

SMILES: CC(C)CCOc1nc(Nc2cccc(C(=O)O)c2)ccc1C(=O)NC1C2CC3CC1CC(O)(C3)C2 (centres undefined)
- IC50: 11 µM

SMILES: CC(C)CCOc1nc(N2C[C@@H]3[C@H](C2)[C@H]3C(=O)O)ccc1C(=O)N[C@H](CO)c1ccccc1
- IC50: 12 µM

SMILES: CC1CC1COc1nc(N2CCC[C@@H](CC(=O)O)C2)ccc1C(=O)NC1CCCCC1 (some centres undefined)
- IC50: 14 µM

SMILES: CC(C)CCOc1nc(N2C[C@@H]3[C@H](C2)[C@H]3C(=O)O)ccc1C(=O)N[C@H](C)c1ccccc1
- IC50: 5.4 µM

SMILES: O=C(NC1C2CC3CC1CC(O)(C3)C2)c1ccc(N2C[C@@H]3[C@H](C2)[C@H]3C(=O)O)nc1OCc1ccccc1 (some centres undefined)
- IC50: 27 µM

SMILES: CC(C)CCOc1nc(N2C[C@@H]3[C@H](C2)[C@H]3C(=O)O)ccc1C(=O)NC[C@@H](O)c1ccccc1
- IC50: 3.1 µM

SMILES: O=C(O)C[C@@H]1CCCN(c2ccc(C(=O)NC3C4CC5CC3CC(O)(C5)C4)c(OCc3ccccc3Cl)n2)C1 (some centres undefined)
- IC50: 2.3 µM

SMILES: CC(C)CCOc1nc(N2C[C@@H]3[C@H](C2)[C@H]3C(=O)O)ccc1C(=O)N(C)Cc1ccccc1
- IC50: 7.4 µM

SMILES: O=C(O)C[C@@H]1CCCN(c2ccc(C(=O)NC3CCCCC3)c(OCc3ccccc3)n2)C1
- IC50: 8.6 µM

SMILES: O=C(O)C[C@@H]1CCCN(c2ccc(C(=O)NC3CCCCC3)c(OCc3ccc(F)cc3)n2)C1
- IC50: 8.8 µM

SMILES: Cc1ccccc1COc1nc(N2CCC[C@@H](CC(=O)O)C2)ccc1C(=O)NC1CCCCC1
- IC50: 4.5 µM

SMILES: Cc1ccccc1CSc1nc(N2CCC[C@@H](CC(=O)O)C2)ccc1C(=O)NC1CCCCC1
- IC50: > 50 µM

SMILES: O=C(O)C[C@@H]1CCCN(c2ccc(C(=O)NC3CCCCC3)c(OCC3CCCCC3)n2)C1
- IC50: 9.7 µM

SMILES: Cc1ccc(COc2nc(N3CCC[C@@H](CC(=O)O)C3)ccc2C(=O)NC2CCCCC2)cc1
- IC50: > 50 µM

SMILES: CC(C)CCOc1nc(N2C[C@@H]3[C@H](C2)[C@H]3C(=O)O)ccc1C(=O)Nc1cccc(O)c1
- IC50: 2.9 µM

SMILES: COc1ccc(COc2nc(N3CCC[C@@H](CC(=O)O)C3)ccc2C(=O)NC2CCCCC2)cc1
- IC50: > 50 µM

SMILES: CCCC(C)Oc1nc(N2CCC[C@@H](CC(=O)O)C2)ccc1C(=O)NC1CCCCC1 (some centres undefined)
- IC50: 12 µM

SMILES: CC(C)CCOc1nc(N2C[C@@H]3[C@H](C2)[C@H]3C(=O)O)ccc1C(=O)Nc1cccc(B(O)O)c1
- IC50: 4.6 µM

SMILES: CC(C)CCOc1nc(N2C[C@@H]3[C@H](C2)[C@H]3C(=O)O)ccc1C(=O)Nc1cccc(CO)c1
- IC50: 3.2 µM

SMILES: O=C(O)C[C@@H]1CCCN(c2ccc(C(=O)NC3CCCCC3)c(OCc3ccccc3Cl)n2)C1
- IC50: 7 µM

SMILES: CC(C)CC(C)Oc1nc(N2CCC[C@@H](CC(=O)O)C2)ccc1C(=O)NC1CCCCC1 (some centres undefined)
- IC50: 12 µM

SMILES: CC(C)CCNc1nc(N2CCC[C@@H](CC(=O)O)C2)ccc1C(=O)NC1CCCCC1
- IC50: > 50 µM

SMILES: CC(C)CCOc1nc(N2C[C@@H]3[C@H](C2)[C@H]3C(=O)O)ccc1C(=O)Nc1ccc(CO)cc1
- IC50: 5.6 µM

SMILES: CC(C)CCOc1nc(N2C[C@@H]3[C@H](C2)[C@H]3C(=O)O)ccc1NC(=O)NC1CCCCC1
- IC50: > 50 µM

SMILES: CC(C)CCOc1nc(N2C[C@@H]3[C@H](C2)[C@H]3C(=O)O)ccc1C(=O)NC1CC2CCC1C2 (some centres undefined)
- IC50: 14 µM

SMILES: CCOC(=O)[C@H]1[C@@H]2CN(c3ccc(C(=O)NC4C5CC6CC4CC(O)(C6)C5)c(OCCC(C)C)n3)C[C@@H]21 (some centres undefined)
- IC50: 13.5 µM

SMILES: Cc1ccccc1COc1nc(N2C[C@@H]3[C@H](C2)[C@H]3C(=O)O)ccc1C(=O)NC1C2CC3CC1CC(O)(C3)C2 (some centres undefined)
- IC50: 4.5 µM

SMILES: CC(C)CCOc1nc(N2C[C@@H]3[C@H](C2)[C@H]3C(=O)O)ccc1C(=O)NCc1cccnc1
- IC50: 5.6 µM

SMILES: CC(C)CCOc1nc(N2C[C@@H]3[C@H](C2)[C@H]3C(=O)O)ccc1C(=O)NCc1cccc(O)c1
- IC50: 6.3 µM

SMILES: O=C(O)C[C@@H]1CCCN(c2ccc(C(=O)NC3CCCCC3)c(OCC3CCC3)n2)C1
- IC50: 20 µM

SMILES: O=C(O)C[C@@H]1CCCN(c2ccc(C(=O)NC3CCCCC3)c(OCc3cccc(F)c3)n2)C1
- IC50: 10 µM

SMILES: CC(C)CCOc1nc(N2C[C@@H]3[C@H](C2)[C@H]3C(=O)O)ccc1C(=O)NC[C@H](O)c1ccccc1
- IC50: 3 µM

SMILES: O=C(O)C[C@@H]1CCCN(c2ccc(C(=O)NC3CCCCC3)c(OC3CCOCC3)n2)C1
- IC50: > 50 µM

SMILES: CC(C)CCOc1nc(Nc2nc(CC(=O)O)cs2)ccc1C(=O)NC1C2CC3CC1CC(O)(C3)C2 (centres undefined)
- IC50: > 50 µM

SMILES: C[C@H](Oc1nc(N2CCC[C@@H](CC(=O)O)C2)ccc1C(=O)NC1CCCCC1)c1ccccc1
- IC50: 11 µM

SMILES: CC(C)CCOc1nc(N2C[C@@H]3[C@H](C2)[C@H]3C(=O)O)ccc1C(=O)NC1C2CC3CC(C2)CC1C3 (some centres undefined)
- IC50: > 50 µM

SMILES: O=C(O)C[C@@H]1CCCN(c2ccc(C(=O)NC3CCCCC3)c(NCc3ccccc3)n2)C1
- IC50: > 50 µM

SMILES: CC(C)CCOc1nc(N2C[C@@H]3[C@H](C2)[C@H]3C(=O)O)ccc1C(=O)NC1CCC(O)CC1 (some centres undefined)
- IC50: 8.2 µM

SMILES: CC(C)CCOc1nc(N2C[C@@H]3[C@H](C2)[C@H]3C(=O)O)ccc1C(=O)NCCc1ccccc1
- IC50: 3.9 µM

SMILES: CN(C)CCOc1nc(N2CCC[C@@H](CC(=O)O)C2)ccc1C(=O)NC1CCCCC1
- IC50: > 50 µM

SMILES: O=C(O)C[C@@H]1CCCN(c2ccc(C(=O)NC3CCCCC3)c(OC3CCC3)n2)C1
- IC50: > 50 µM

From ChEMBL document CHEMBL4680101, “Discovery and Optimization of Allosteric Inhibitors of Mutant Isocitrate Dehydrogenase 1 (R132H IDH1) Displaying Activity in Human Acute Myeloid Leukemia Cells” (J Med Chem, 2016)
